PubChem BioAssay AID540268 (Broad Institute, 2011)
Calls of active or inactive are those of the source. The rule behind the calls is not given here.

Assay: growth inhibition of yeast carrying parasite Hsp90, dose response, anti-malarial Hsp90 inhibitor project, ATP luminescence, 48 h, cherry-picked samples (AID 540268);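 for activity change, negative = inhibition: 0% = neutral control wells and -100% = positive control wells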
Conditions: yeast expressing the parasite Hsp90, ATP luminescence; for activity change, negative = inhibition: at 26 µM (top of the series)

Row | Structure (SMILES) | AC50 | activity change, negative = inhibition
1 | O=C(O)/C=C/c1cn(-c2ccccc2)nc1-c1cc2ccccc2o1 | 16 µM | 
2 | Oc1cc(Cl)ccc1Oc1ccc(Cl)cc1Cl | 7.54 µM | 
3 | COC(=O)c1cc(=O)n(-c2ccc(F)cc2)c(=Nc2ccc(F)cc2)s1 | 13.9 µM | 
4 | COc1ccc(-c2nc(-c3ccccn3)no2)cc1 | 16.2 µM | 
5 | CCOC(=O)c1cc2cc(OCc3ccccc3)ccc2nc1C | 2.97 µM | 
6 | O=C1C=CC(=O)N1c1cccc(-c2ccccc2)c1 | < 0.195 µM | 
7 | Oc1ccc2ccccc2c1/C=N/Nc1nnc(-c2ncc[nH]2)c2ccccc12 | 4.24 µM | 
8 | Cc1cc(C)c2c(N=NN(C)C)[nH]nc2n1 | 3.92 µM | 
9 | CCOC(=O)C1=C(N)N2C(=O)C(C)SC2=C(C(=O)OC)C1c1ccccc1OC (stereo not given) | 0.706 µM | 
10 | CCCC1COC(Cn2cncn2)(c2ccc(Cl)cc2Cl)O1 (stereo not given) | < 0.195 µM | 
11 | O=C(CC(n1cncn1)C(Cl)(Cl)Cl)c1ccc([N+](=O)[O-])cc1 (stereo not given) | 4.42 µM | 
12 | COc1ccc(-c2nn(-c3ccccc3)cc2C(=O)N2CCN(S(=O)(=O)c3ccccc3[N+](=O)[O-])CC2)cc1 | 4.14 µM | 
13 | COc1ccc2c3c(ccc2c1)C(=O)/C(=C/O)CC3 | 4.29 µM | 
14 | CC(C)=CCc1cc([C@@H]2COc3c(ccc4c3C=CC(C)(C)O4)C2)c(O)cc1O | 0.265 µM | 
15 | Clc1ccccc1CN(Cc1ccco1)Cc1nnnn1C1CCCC1 | 9.49 µM | 
16 | CC1=NOC(=O)/C1=C\c1ccc(-c2ccc(Br)cc2)o1 | 4.51 µM | 
17 | CCC(=O)OC1(C)C(=O)C2=COC(c3ccc(OC)cc3)=CC2=C(Br)C1=O (stereo not given) | 2.81 µM | 
18 | COc1ccc(C2=CC3=C(Br)C(=O)C(C)(OC(=O)c4ccco4)C(=O)C3=CO2)cc1 (stereo not given) | 3 µM | 
19 | CC[C@@H](C)[C@H](NC(=O)OC(C)(C)C)c1nnc(S(=O)(=O)Cc2cc(C)ccc2C)o1 | 5.46 µM | 
20 | Cc1c(Cc2ccccc2)c(NCCN(C)C)n2c(nc3ccccc32)c1C#N | 0.701 µM | 
21 | CC1=CC2C(C(O)CC3(C)C2CC(C)C32OCOC23COCO3)C2(C)C/C(=C\O)C(=O)C=C12 (stereo not given) | 3.13 µM | 
22 | c1cnc2c(c1)ccc1cccnc12 | 6.61 µM | 
23 | Oc1ccccc1N=Nc1nc(-c2ccccc2)c(-c2ccccc2)[nH]1 | 1.98 µM | 
24 | O=C(N/N=C/c1c(O)ccc2ccccc12)c1cccc(C(F)(F)F)c1 | 2.86 µM | 
25 | O=C(/C(=C/O)N=Nc1ccccc1)c1ccc(Cl)cc1 | 6.25 µM | 
26 | Cc1cc2cc(CNC(=O)c3ccc(C)c([N+](=O)[O-])c3)ccc2[nH]1 | 8.29 µM | 
27 | Cc1cccc(Nc2nc(N)c([N+](=O)[O-])c(N3CC(C)CC(C)C3)n2)c1 (stereo not given) | 3.22 µM | 
28 | O=[N+]([O-])/C=C\c1ccc(N2CCCC2)c(F)c1 | 6.27 µM | 

Row | Structure (SMILES) | AC50 | activity change, negative = inhibition
29 | CCCC(=O)NC(c1ccc2c(c1)OCO2)c1cc(Cl)c2cccnc2c1O (stereo not given) | 4.45 µM | 
30 | CC(C)=CCc1c(O)ccc(C2COc3c(CC=C(C)C)c(O)cc(O)c3C2=O)c1O (stereo not given) |  | -110% (inactive)
31 | CC(C)(C)c1cc(NCc2ccccn2)n2ncc(-c3ccccc3)c2n1 | 1.49 µM | 
32 | Cc1ccc(O)c(N=Nc2nccs2)c1 | 1.2 µM | 
33 | Oc1ccc(O)c2c1C1(Cl)C(Cl)=C(Cl)C2(Cl)C1(Cl)Cl | 3.87 µM | 
34 | Oc1c(C(c2ccccc2)N2CCOCC2)ccc2ccccc12 (stereo not given) | 6.53 µM | 
35 | O=C(N/N=C/c1ccccn1)c1cc(-c2ccc(Cl)cc2)nc2ccccc12 | 8.57 µM | 
36 | CCC1=NN2C(=N)/C(=C\c3cccn3-c3ccc(C)cc3C)C(=O)N=C2S1 | 8.14 µM | 
37 | Cc1c(N=Cc2cc(Br)cc(Br)c2O)cccc1C(=O)O | 3.06 µM | 
38 | C/C(CC(=O)Nc1cc(C)ccn1)=N\NC(=O)c1cccc(C)c1O |  | -51.7% (inactive)
39 | O=C1C(Cl)=C(NCCc2ccccc2)C(=O)c2ccccc21 | 0.556 µM | 
40 | Cc1cccc(N=C2c3cc([N+](=O)[O-])ccc3-c3c2cc([N+](=O)[O-])cc3[N+](=O)[O-])c1 | 9.02 µM | 
41 | COc1ccc(-c2sc3ccccc3c2/C=C/c2ccncc2)cc1 | 4.84 µM | 
42 | O=[N+]([O-])c1ccc(NC(c2ccccc2)c2ccc3cccnc3c2O)cc1 (stereo not given) | < 0.195 µM | 
43 | O=C1Nc2ccc(Br)cc2/C1=C/C(=O)c1ccc2c(c1)OCO2 | 2.63 µM | 
44 | C[C@@H]1C[C@@H]2O[C@H]2/C=C\C=C\C(=O)Cc2c(Cl)c(O)cc(O)c2C(=O)O1 | 2.51 µM | 
45 | COc1ccc(SN=C2C(C)=CC(=O)C=C2C)cc1 | 5.7 µM | 
46 | Cc1cc(/C=c2\sc3nc4ccccc4n3c2=O)c(C)n1-c1ccc(C(=O)O)cc1 |  | 22.6% (inactive)
47 | Oc1c(CN2CCN(c3ccc(F)cc3)CC2)cc(Cl)c2cccnc12 | < 0.195 µM | 
48 | O=C1c2cc(Cl)ccc2-c2c(O)cc(Cl)cc21 | 1.4 µM | 
49 | Clc1ccc(CSC(Cn2ccnc2)c2ccc(Cl)cc2Cl)cc1 (stereo not given) | 0.576 µM | 
50 | CCOC(=O)c1ccc(N2C(=O)CC(N3CCC(O)(c4ccc(Cl)cc4)CC3)C2=O)cc1 (stereo not given) | 4.04 µM | 
51 | Cc1nn(-c2nc3ccccc3[nH]2)c(=O)c2ccccc12 | 1.84 µM | 
52 | CCS(=O)(=O)Nc1cccc(-c2cc(-c3ccccc3)c3cc(C)ccc3n2)c1 | 4.55 µM | 
53 | CCCCCCCCCCCCCCCCn1cc[n+](C)c1 | 2.89 µM | 
54 | Clc1ccc(C(Cn2ccnc2)OCc2csc3c(Cl)cccc23)c(Cl)c1 (stereo not given) | < 0.195 µM | 
55 | Cc1ccc(S(=O)(=O)N(C(=O)c2ccncc2)c2ccc(OC(=O)c3ccncc3)cc2)cc1 | 0.863 µM | 
